Values of other authors, collected in patent publication US20120183988A1, “INTEIN-BASED F[…]-CIRCUIT FOR VITAMIN D DETECTION” (priority 2009, published 2012).

Details: cited from reference 2 (Haddad and Stamp 1974)

For `C=C1CC[C@H](O)C/C1=C/C=C1\CCC[C@]2(C)[C@@H]([C@H](C)CCCC(C)(C)O)CC[C@@H]12` [25(OH)D3, 25-hydroxyvitamin D3], the serum half-life is given as “ca. 3 weeks”.
